Data: patent US8809377B2, “Deubiquitinase inhibitors and methods for use of the same” (The Regents of the University of Michigan, priority 2010, dated 2014)

Columns and labels:
La Crosse virus (LaCV) = test: La Crosse virus plaque assay; details: human neurons (Be2-c), 5 μM, 30 min pre-treatment
Mcl1 = test: Western blot of Mcl-1 levels; format: cell-based
Procedure: (§1) Total cell lysates were prepared by boiling and sonicating cell pellets in 1× Laemmli reducing sample buffer. To prepare detergent soluble and insoluble fractions, cells were lysed in cold isotonic lysis buffer [10 mM Tris-HCl (pH 7.5), 0.5% Triton X-100, 150 mM NaCl along with Mini-Complete and PhosSTOP] for 15 min on ice and centrifuged 10 min at 20,000 RCF. The clarified supernatant was used as the detergent soluble cell fraction. The residual pellet was washed and extracted in Laemmli reducing sample buffer and briefly sonicated to derive the detergent insoluble fraction. Equal volumes of cellular lysate or equal protein amounts were electrophoresed on SDS-PAGE gels and transferred to nitrocellulose membranes (Whatmann, Dassel, Germany). Proteins were detected by immunoblotting.
Whole cell lysates were prepared by boiling and sonicating the cell pellets in 1× Laemmli reducing sample buffer. To prepare detergent soluble and insoluble fractions, cells were lysed in cold isotonic lysis buffer [10 mM Tris-HCl (pH 7.5), 0.5% Triton X-100, 150 mM NaCl along with Mini-Complete and PhosSTOP] for 15 min on ice and centrifuged 10 minutes at 20,000 RCF. The clarified supernatant was used as a source of the detergent soluble cell fraction. The detergent insoluble fraction was extracted by the sonication of residual pellet in equal volumes of boiling 1× Laemmli reducing sample buffer. […]

pStat5 = test: Western blot of pStat5; format: cell-based; details: BV-173 cells, 5 μM, 1 or 2 hours
Procedure: as §1
Cancer Res, 2010. 70(22): p. […] Blood, 2011. 117(11): p. […] Biochem Pharmacol, 2011. 82(4): p. […] Blood, 2007. 109(8): p. 3470-8.

[1] = system: Encephalomyocarditis virus; test: Encephalomyocarditis virus plaque assay; details: 5 μM, 30 min pre-treatment, listed as HWP1130
cellular DUB activity = test: DUB activity of lysates from treated cells (Ub-AMC, Ub chain disassembly); format: cell-based
Procedure: Cells were lysed in ice cold DUB buffer containing 50 mM Tris-HCl, pH 7.5, 0.5% NP-40, 5 mM MgCl2, 150 mM NaCl and 1 mM phenylmethylsulfonylfluoride. Briefly, 5 μg of clarified lysate from untreated or treated cells was incubated with 500 nM Ub-AMC in a 100 μL reaction volume at 37° C. and the release of AMC fluorescence was recorded at ex/em 380/480 using a spectrofluorometer. USP9x was immunoprecipitated from 500 μg of cell lysate and incubated in DUB buffer containing NEM, WP1130 or DMSO in a 100 μL reaction volume for 30 min. The reaction was initiated by the addition of 500 nM Ub-AMC and the release of AMC-fluorescence was recorded.
In vitro disassembly of purified polyubiquitin chains (K-48/K-63 linked) was performed as previously described. Five μg of lysate from untreated or WP1130 treated cells were prepared in DUB buffer and incubated with K48- or K-63 linked chains (1 μg) for 10 min at 37° C. The extent of chain disassembly was assessed by ubiquitin immunoblotting.
Inhibition of cellular deubiquitinases could lead to an increase in high molecular weight ubiquitinated proteins in the absence of proteasome inhibition. […] To directly assess the impact of WP1130 on DUB activity in treated cells, cell lysates from control and treated cells were incubated with ubiquitin-AMC and fluorescence generated as a consequence of substrate cleavage was measured as an indicator of DUB activity.
The effect of WP1130 treatment on in vitro deubiquitination/disassembly of purified K48-linked or K63-linked polyubiquitin chains was evaluated. Lysates from WP1130 treated (2 hr) or untreated cells were incubated with 1 μg of unanchored polyubiquitin chains for 5, 10 and 15 min at 37° C.

USP14 = target: T1, USP14 (Homo sapiens, UniProt P54578); test: HA-UbVs labeling of USP14; format: cell-based; details: Z138 cells, 1, 5 or 10 μM, 1 hour
T1 construct: endogenous in cells; host or cells: Z138
Procedure: To assay for changes in activity of cellular deubiquitinase enzymes, Z138 and HEK293 cells were lysed in DUB buffer (50 mM Tris pH 7.4, 5 mM MgCl2, 150 mM NaCl) for 10 min at 4° C. The lysates were centrifuged at 20,000 RFC for 10 min and the supernatant was used for DUB labeling. Equal amounts of lysate were incubated with 500 ng of HA-UbVs for 1 hr at room temperature, followed by boiling in reducing sample buffer and resolving by SDS-PAGE. After protein transfer to nitrocellulose membranes, HA immunoblotting was used to detect DUB labeling.
Hemagglutinin-tagged ubiquitin vinyl methyl sulfone (HA-UbVs) acts as a DUB suicide substrate, forming a covalent adduct with active DUB enzymes. Specific cellular DUBs can be identified by anti-HA blotting, as previously shown in various cell types. Changes in specific DUB activities are measurable by monitoring HA-labeling in lysates from control and treated cells. Z138 cells were treated with WP1130 at 1, 5, or 10 μM or AG490 at 250 μM for 1 hours and lysed. 20 μg of clarified supernatant was incubated with 200 nM of HA-UbVS for 1 hr at 37° C. […] An in vitro analysis using cell lysates was performed to investigate direct DUB inhibition by WP1130. Briefly, untreated Z138 cell lysates were incubated with 5 μM WP1130 or vehicle alone for one hour at 37° C., followed by labeling with HA-UbVs.

T1 sequence (P54578 whole entry): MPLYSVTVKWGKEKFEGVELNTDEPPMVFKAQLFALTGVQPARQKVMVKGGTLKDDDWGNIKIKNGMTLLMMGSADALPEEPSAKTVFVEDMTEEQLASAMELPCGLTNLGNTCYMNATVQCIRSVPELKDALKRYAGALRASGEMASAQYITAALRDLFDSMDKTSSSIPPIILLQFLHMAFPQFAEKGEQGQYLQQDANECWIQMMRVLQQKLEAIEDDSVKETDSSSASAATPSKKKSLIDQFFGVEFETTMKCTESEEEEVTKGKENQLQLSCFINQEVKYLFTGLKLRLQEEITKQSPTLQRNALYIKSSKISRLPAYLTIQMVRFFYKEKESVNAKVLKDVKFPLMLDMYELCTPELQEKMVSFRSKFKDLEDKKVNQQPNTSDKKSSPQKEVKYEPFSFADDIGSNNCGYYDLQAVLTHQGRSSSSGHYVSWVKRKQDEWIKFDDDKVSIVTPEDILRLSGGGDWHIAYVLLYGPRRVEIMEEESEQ

CCC[C@H](NC(=O)/C(C#N)=C/c1cccc(Br)n1)c1ccccc1 [WP1130]
Log inhibition by plaque assay (La Crosse virus (LaCV)): 2-2.5 log
Log inhibition by plaque assay (La Crosse virus (LaCV); listed as HWP1130): 2.5 log
MCL-1 levels (Mcl1; Z138 cells): rapid decline
Mcl-1 levels (Mcl1; imatinib sensitive and resistant CML cells): reduced
phosphorylation of Stat5 (pStat5): loss of phosphorylation of Stat5
Log inhibition by plaque assay [1]: 2 log
Ub-AMC hydrolyzing activity of lysates from treated cells (cellular DUB activity; CML cells, WP1130 1-8 hours): limited effects
reduction of DUB activity (ubiquitin-AMC) (cellular DUB activity; Z138 cells, 5 μM WP1130 or 50 nM bortezomib, by 4 hours): ~50%
disassembly of K48-/K63-linked polyubiquitin chains by lysates (cellular DUB activity; lysates from cells treated 2 hr): limited disassembly
HA-UbVS labeling of USP14 (USP14): dose-dependent and time reduction in the labeling
